Results published in article PMC4838890, “Dynamic and flexible H3K9me3 bridging via HP1β dimerization establishes a plastic state of condensed chromatin” (Nature Communications, 2016).
Entries after “also recorded” stand apart in the source; their conditions may differ. Like-named read-outs stand apart in the source and are kept apart here.

Assays:
H3KC9me3 peptide = test: ITC, H3KC9me3 peptide; assay type: binding; conditions: for Kd: ITC, pH 7.5, 25°C, read-out: Kd (apparent dissociation constant)
Description: ITC measurements were performed on a iTC200 calorimeter (Microcal, Malvern, UK) at 25°C in binding buffer (10 mM triethanolamine (pH 7.5), 20 or 150 mM NaCl, 0.1 mM EDTA). Reaction heats were recorded by sequences of 37 injections of 1.8 mM hHP1β, spaced at 120 s intervals, into 250 μl of 60 μM H3 peptides, nucleosomes or oligonucleosomal arrays under constant stirring at 1,000 r.p.m. (injection #1–10: 0.5 μl each; injection #11–32: 1 μl each; injection #33–37: 2 μl each). Heats of dilution, obtained by the titration of hHP1β into buffer, were substracted from raw data before analysis. Raw data were integrated, normalized and the apparent heat change (Δq) of the reaction was plotted against the molecular ratio using the Origin software. For the determination of apparent enthalpy changes (ΔHapp), the molar association constant (KA), and the stoichiometry (n) of the interaction, non-linear least-square fitting of the Δq values was performed by the Origin software using a binding model of one set of identical binding sites.
(§1) Supplementary Table 1: Summary of conditions used in the different experiments of this study. experiment result modification template Temp. [NaCl] [MgCl2] […]
(§2) chromatin Fig. 1e,f; Fig. S1f-h; H3K9me3 oligo- 4 150 5 coprecipitation Fig. S2b nucleosomes
(§3) Fig. S7d,f; Fig.S9c nucleosomes […]
(§4) chromatin sedimentation Fig. 4a; H3K9me3 oligo- 4 150 0
(§5) (single point) Fig. S3b nucleosomes […]
(§6) chromatin sedimentation. oligo-(titration) Fig. 3a H3K9me3 nucleosomes 4 150 0

[1] = test system: H3K9me3 oligonucleosomes in the absence of the H4 N-terminal tail; test: Chromatin coprecipitation, H3K9me3 oligonucleosomes with tailless H4; assay type: binding, Xenopus laevis; conditions: 150 mM NaCl, western blot
Description: […] Precipitated chromatin complexes were recovered by centrifugation at 16,100g for 30 min at 4°C. Pellets were washed once with 0.5 ml binding buffer and centrifuged for 15 min at 4 °C. Precipitated material was resuspended in 10 μl 1 × SDS loading buffer and boiled for 5 min before running on SDS–PAGE.
Supplementary Table 1: Summary of conditions used in the different experiments of this study.
experiment result modification template Temp. [NaCl] [MgCl2]
chromatin Fig. 1e,f; Fig. S1f-h; H3K9me3 oligo- 4 150 5

H3K9me3 peptide = target: T1, H3K9me3 peptide (Homo sapiens, UniProt P68431); test: Pull-down, immobilized H3K9me3 peptide; assay type: binding; conditions: H3-tail peptides densely immobilized on magnetic beads, 100 pmol protein, 150 mM NaCl, 4°C
T1 construct: C-terminally biotinylated histone H3 peptides (aa 1–20)
Description: 4 μg C-terminally biotinylated histone H3 peptides (aa 1–20) or 1 μg of biotinylated nucleosomes or oligonucleosomal arrays were incubated with 40 μl Streptavidin MagnaSphere Paramagmetic beads (Promega, Mannheim, Germany) in 350 μl binding buffer (10 mM triethanolamine (pH 7.5), 150 mM NaCl, 0.1 mM EDTA, 0.1% (v/v) Triton-X100) supplemented with 1 mg ml^−1 BSA for 2.5 h at RT. Unbound material was removed by three washes with 0.5 ml binding buffer. Charged beads were then incubated with 100 pmol recombinant protein in 350 μl binding buffer for 1 h at 4°C on a rotator. Beads were washed three times with 0.5 ml binding buffer for 3 min per wash at 4°C. Bound proteins were eluted in 20 μl 1 × SDS loading buffer and by boiling for 5 min.
as §1, §2, §3, §4, §5, §6

recovery on H3K9me3 peptide (H3K9me3 peptide) | Substance | Kd (H3KC9me3 peptide; 20 mM NaCl) [µM] | Kd (H3KC9me3 peptide; 150 mM NaCl) [µM] | reduced binding to H3-tail peptide containing H3KC9me compared with methylated lysine (H3KC9me3 peptide; Table 1, ref [17]) | recovery at 3.5 mM and 7.0 mM MgCl2 with tailless H4 chromatin [1]
 | hHP1β WT: recombinant human heterochromatin protein 1β (GenBank NM_001127228), 185 aa | 11 ± 4 | 21 ± 3 | sixfold reduced binding | reduced recovery of hHP1β with H3K9me3 oligonucleosomes in the absence of the H4 N-terminal tail at 3.5 mM MgCl2; also recorded: recovery at 7.0 mM MgCl2 was comparable to the level obtained with H3K9me3 oligonucleosomes containing WT core histones
significantly reduced recovery | hHP1β I161A: CSD point mutant of hHP1β incapable of dimerization |  |  |  | 
